In patent US20130287918A1, “MICROBICIDAL COMPOSITION” (DUPONT NUTRITION DIOSCIENCES APS, priority 2010, published 2013):

How the values were obtained:
Type in all cases: cell-based
Saccharomyces servazzii = experiment: In vitro susceptibility of contaminant yeast by minimal inhibition concentrations; conditions: MicroGARD 200 at 1% (w/v); allyl isothiocyanate 0.01%; FP 1000-D1 at 1% (w/v)
Experimental: The dominating yeast in the control batch was traced back to Pichia spp., likely to be the added DCS 1175 strain. At what time point the contaminant yeast occurred is not known. The contaminant yeast. Saccharomyces servazzii, was tested in vitro for susceptibility towards MicroGARD® 200, allyl isothiocyanate, and the FP1000 variant FP 1000-D1 by determination of minimal inhibition concentrations (data not shown) The results confirmed a tolerance of the yeast against MicroGARD® 200 at 1% (w/v) and susceptibility towards allyl isothiocyanate 0.01% and FP 1000-D1 at 1% (w/v), respectively. Consequently, although eventually present in all batches, Saccharomyces servazzii could have been suppressed in the preserved batches, but was able to outgrow in batch D. The high acetic acid concentration in the unpreserved batch A and the competing yeast flora could have caused suppression of the contaminant in those samples.

[1] = tested on: Salmonella enteritidis DCS 1152; experiment: Minimal Inhibition Concentration Assay (MIC), 96 well liquid based; conditions: Salmonella enterica, in blend FP1000S, read-out: actual presence of the individual compound in the blend at MIC level
Text: (§1) The target strains used for assessment of antimicrobial activity are isolates of different origin e.g. food spoilage isolates, spoilage organisms provided by a customer, national strain collections (e.g. DSMZ, ATCC) collected in the in house Danisco Culture Collection (DCS) (Danisco, Brabrand, Denmark), maintained at −86′C in suitable broth containing glycerol 50% (v/v). The strains were chosen to represent Gram negative and fungal strains. All species used were aerobic. Before each experiment, stock cultures were propagated through two consecutive growth cycles in suitable media and temperature. The overnight cultures are diluted in saline solution to obtain working cultures.
(§2) Yeast and mould strains were incubated at 25° C., and bacterial isolates were grown at 30° C. under aerobic conditions depending on the preferred conditions for the particular strain (Method no AP-002).
(§3) The Minimal Inhibition Concentration Assay (MIC) is a 96 well liquid based assay developed for an automated assessment system and performed essentially as described in (Method no AP-003). Indicator strains (table 2) are tested for inhibition of growth by the putative anti-microbial substances and combinations thereof, using a wide concentration range (depending on the compound), in this case by performing a ⅔-dilution series of each sample at pH 6.0 (±0.2)). From a 10 fold diluted overnight culture 5 μl of each strain was inoculated in one well corresponding to an approximate inoculation density of 10^3-10^4 cells/well. Media used were YM-broth for yeast and moulds and CASO-broth for bacterial isolates. Strains were incubated at 24° C. or 30° C. for 24 to 48 hours depending on the strain. The increase in optical density (O.D.) after incubation is compared to a growth control to estimate whether the substance has a bacteriostatic effect and to determine the MIC. MIC is defined as the lowest concentration of the antimicrobial that will inhibit measurable growth. A bacteriostatic effect is defined as the OD620 being less than or equal to 20% of the growth control after incubation.
(§4) To obtain more accurate estimates of the values, an Excel macro was used to process the raw data. The macro scans the raw data and finds the two concentrations that lie on either side of the O.D. 20% threshold value. It then pinpoints the actual concentration where the O.D. crosses the threshold, using linear correlation. All data are presented as the mean values of duplicates for each microorganism.
(§5) The MIC assays were run on a fully automated assessment system consisting of a 9-hotel Cytohotel (Thermo), a Biomek FxP pipetting robot (Beckman Coulter), an ORCA robotic arm on a 3 meter rails (Beckman Coulter), 2 Synergy HT spectrophotometers (Biotek), a Cytomat 6001 incubator (Thermo) and a Cytomat 2C incubator (Thermo).

[2] = tested on: Candida tropicalis DCS 604; experiment: as above; conditions: DCS604, in blend FP1000S, read-out: actual presence of the individual compound in the blend at MIC level
Text: as §1, §2, §3, §4, §5

[3] = tested on: Candida parapsilosis DCS 1090; experiment: as above; conditions: Lodderomyces parapsilosis, DCS1090; in blend FP1000S; read-out: actual presence of the individual compound in the blend at MIC level
Text: as §1, §2, §3, §4, §5

Escherichia coli DCS 495 = experiment: as above; conditions: DCS495, read-out: actual presence of the individual compound in the blend at MIC level
Text: as §1, §2, §3, §4, §5

[4] = tested on: Rhodotorula glutinis DCS 606; experiment: as above; conditions: DCS606, in blend FP1000S, read-out: actual presence of the individual compound in the blend at MIC level
Text: as §1, §2, §3, §4, §5

[5] = tested on: Saccharomyces cerevisiae DCS 599; experiment: as above; conditions: DCS599, in blend FP1000S, read-out: actual presence of the individual compound in the blend at MIC level
Text: as §1, §2, §3, §4, §5

[6] = tested on: Pseudomonas fluorescens DCS 428; experiment: as above; conditions: DCS428, in blend FP1000S, read-out: actual presence of the individual compound in the blend at MIC level
Text: as §1, §2, §3, §4, §5

Pichia anomala DCS 603 = experiment: as above; conditions: Hansenula anomala, DCS603; in blend FP1000S; read-out: actual presence of the individual compound in the blend at MIC level
Text: as §1, §2, §3, §4, §5

[7] = tested on: Debaryomyces hansenii DCS 605; experiment: as above; conditions: DCS605, in blend FP1000S, read-out: actual presence of the individual compound in the blend at MIC level
Text: as §1, §2, §3, §4, §5

[8] = tested on: Aspergillus versicolor DCS 1069; experiment: as above; conditions: DCS1069, in blend FP1000S, read-out: actual presence of the individual compound in the blend at MIC level
Text: as §1
(§6) Mould spore inoculums were prepared as follows: approx. 2 ml of sterile demineralised water was used to wash the spores off an out-grown mould (minimum 5 day old plate). This suspension is transferred to a sterile container.
as §2
as §3, with “MIC is defined as the lowest concentration of the antimicrobial that will inhibit measurable growth. A bacteriostatic effect is defined as the OD620 being less than or equal to 20% of the growth control after incubation.” left out

[9] = tested on: Aspergillus niger DCS 1115; experiment: as above; conditions: DCS1115, in blend FP1000S, read-out: actual presence of the individual compound in the blend at MIC level
Text: as §1, §6, §2
as §3, with “MIC is defined as the lowest concentration of the antimicrobial that will inhibit measurable growth. A bacteriostatic effect is defined as the OD620 being less than or equal to 20% of the growth control after incubation.” left out

[10] = tested on: Aspergillus parasiticus DCS 709; experiment: as above; conditions: DCS709, in blend FP1000S, read-out: actual presence of the individual compound in the blend at MIC level
Text: as §1, §6, §2
as §3, with “MIC is defined as the lowest concentration of the antimicrobial that will inhibit measurable growth. A bacteriostatic effect is defined as the OD620 being less than or equal to 20% of the growth control after incubation.” left out

For `C=CCN=C=S` [AITC, allyl isothiocyanate], which “in vitro susceptibility of contaminant yeast (data not shown)” value (Saccharomyces servazzii) is on record?
Its value is “susceptibility”.

And the MIC [1]?
Its MIC is greater than 700 µg/mL.

And the MIC [2]?
The MIC was 235 µg/mL.

And the MIC [3]?
Its MIC is 67 µg/mL.

And the MIC (Escherichia coli DCS 495)?
The MIC was greater than 700 µg/mL.

What about the MIC [4] of the same molecule?
The MIC was 200 µg/mL.

And the MIC [5]?
The MIC was 196 µg/mL.

What about the MIC [6] of the same molecule?
The MIC was 412 µg/mL.

And the MIC (Pichia anomala DCS 603)?
The MIC was 380 µg/mL.

And the MIC [7]?
Its MIC is 213 µg/mL.

And the MIC [8]?
Its MIC is 143 µg/mL.

And the MIC [9]?
Its MIC is 106 µg/mL.

And the MIC [10]?
Its MIC is 38 µg/mL.
